Consider 55 molecules from patent US20030229066A1, “Novel heterocyclic urea derivatives and their use as dopamine D3 receptor ligands” (priority 2001, published 2003).

One assay deals with T1, cloned human dopamine D3 receptors (Homo sapiens, UniProt P35462).
T1 construct: expressed in transfected cells
T1 sequence (P35462 whole entry): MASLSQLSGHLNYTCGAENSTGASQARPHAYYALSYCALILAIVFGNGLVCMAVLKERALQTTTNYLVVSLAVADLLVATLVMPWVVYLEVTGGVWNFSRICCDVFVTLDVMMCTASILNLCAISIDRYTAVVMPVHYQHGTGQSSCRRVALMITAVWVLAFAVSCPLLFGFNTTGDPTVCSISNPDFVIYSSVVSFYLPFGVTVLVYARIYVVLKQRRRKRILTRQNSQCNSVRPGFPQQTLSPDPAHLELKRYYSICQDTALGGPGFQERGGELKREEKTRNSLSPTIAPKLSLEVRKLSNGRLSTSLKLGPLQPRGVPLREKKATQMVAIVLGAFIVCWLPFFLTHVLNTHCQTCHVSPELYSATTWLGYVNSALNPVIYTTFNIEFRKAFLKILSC
The experiment in a line: [N-Methyl-3H]Spiroperidol binding to cloned human dopamine D3 receptors.
Conditions: not given
An excerpt:
[N-Methyl-^3H]Spiroperidol Binding to Cloned Human Dopamine D3 Receptors
This assay measures the in vitro activity of compounds on cloned human dopamine (D3) receptors and predicts the direct dopamine-blocking properties of putative neuropsychiatric agents at human dopamine D3 receptors.
The D3 gene was isolated from a human striatal cDNA library (Stratagene). The gene was sequenced and sub-cloned into the expression vector RC/RSV (Invitrogen). CHO (Chinese Hamster Ovary) cells were stably transfected with 10 μg of the D3/RSV plasmid using the DOTAP method from Boehringer Mannheim and 72 clones that were G418 resistant were isolated. Using mRNA and binding displacement data a single high expressing clone was identified. This clone was then grown in large batches for the purpose of developing a 96 well format assay.
The cells are harvested into 250 ml centrifuge tubes with 100 volumes of cold phosphate buffered saline (PBS) and spun down (1200×G for 10 min at 4° C.). The medium is removed and 100 ml PBS are added to each centrifuge tube, cells are resuspened and spun down again. The PBS is removed and the final pellet is homogenized in an appropriate volume of 10% DMSO with a polytron on ice at a medium setting.
For Kj determinations: [^3H]NMSP is made up to a concentration of 2.7 nM in buffer 2b, such that when 150 μl is added to each tube a final concentration of 0.4 nM is attained in the 1 ml assay. Samples of total CPM added are taken for each experiment to calculate the total ligand concentration.
5. S(-)-Eticlopride is obtained from Research Biochemicals International (RBI catalog number E-101). A refrigerated stock (good for up to a month) solution of S(-)-eticlopride is made at a concentration of 30 μM in buffer 2b. One hundred microliters are added to 3 wells for the determination of nonspecific binding (this yields a final concentration of 3 μM in the 1 ml assay).
For most assays, a 100 μM stock solution of the test compound is made up in a suitable solvent (usually <0.1% acetic acid) and serially diluted with buffer 2b, such that when 100 μl of drug is combined with the total 1 ml assay, final concentrations ranging from 10^−5-10^−8 M are attained. Characteristically eight concentrations are studied for each assay; however, higher or lower concentrations may be used, depending on the potency of the drug.
The 96-Well Packard Unifilters GF/B are incubated for >1 h at 25° C. in 0.1% polyethylamine (from 3,b). The cold tissue is added last and mixed on a orbital shaker for a few seconds and is then incubated at 37° C. for 30 min in a shaking water bath. The assay is stopped by rapid filtration through Packard Unifilter plates. The filter membranes are then washed with 15 ml of ice-cold 0.05 M Tris buffer. The filters are then dried (˜15 min under a heat lamp or incubated for 15 min in a 60° C. oven) and a bottom seal is applied. Then 40 μl of Packard Microscint 20 scintillation cocktail is added and a permanent topseal (Type P) is applied and heat sealed. The plates are then shaken on an orbital shaker for 1 h and placed in the Packard Topcount and counted for at least 5 minutes for each point.
Specific binding is defined as the difference between total binding and the binding in the presence of 3 μM S-(-)-eticlopride. Total binding is approximately 10% of the total added ligand. Cheng-Prusoff determination (Kj's) are performed using Prism software using a one-site competition curve analysis where the top and the bottom of the non-linear regression are held constant at 0% and 100% percent inhibition. The percent inhibition at each drug concentration is the mean of duplicate determinations.
`C=CCN(CC1CC1CN1CCCN(c2csc3cc(F)ccc23)CC1)C(=O)Nc1ccc(OC)cc1` (racemic) [compound 830389] came in with a Ki of 2.97 nM.

As to `O=C(Nc1ccc(OC(F)(F)F)cc1)N(Cc1ccccc1)CC1CC1CN1CCCN(c2csc3cc(F)ccc23)CC1` (racemic) [compound 830400], the Ki amounted to 41.3 nM.

The molecule `O=C(Nc1ccc(Cl)c(Cl)c1)N(Cc1ccccc1)CC1CC1CN1CCCN(c2csc3cc(F)ccc23)CC1` (racemic) [compound 830401] came in with a Ki of 29.7 nM.

Consider `COc1ccc(NC(=O)NCC2CC2CN2CCCN(c3csc4cc(F)ccc34)CC2)cc1` (racemic) [compound 830408], for which the Ki amounted to 3.43 nM.

In the case of `O=C(NCC1CC1CN1CCCN(c2csc3cc(F)ccc23)CC1)Nc1ccc(Cl)c(Cl)c1` (racemic) [compound 830409], the Ki was 47.4 nM.

`CC(C)(C)NC(=O)NCC1CC1CN1CCC(c2noc3ccsc23)CC1` (racemic) [compound 831498] gave a Ki of 43.6 nM.

In turn, `O=C(NCCc1ccccc1)NCC1CC1CN1CCC(c2noc3ccsc23)CC1` (racemic) [compound 831670] displayed a Ki of 159 nM.

Still in this assay, the particulars now being: Table III; read-out: d3Ki.
Consider `COc1ccc(NC(=O)NCCCCN2CCN(c3csc4cc(C(F)(F)F)ccc34)CC2)cc1` [815994A], for which the Ki worked out at 5.94 nM.

For the molecule `Cc1ccc(NC(=O)NCCCCN2CCN(c3csc4cc(C(F)(F)F)ccc34)CC2)cc1` [815997A], the Ki worked out at 4.08 nM.

In the case of `CC(=O)c1ccc(NC(=O)NCCCCN2CCN(c3c(Cl)sc4cc(F)ccc34)CC2)cc1` [compound 815158], the Ki was found to be 7.4 nM.

Take `O=C(NCCCCN1CCN(c2c(Cl)sc3cc(F)ccc23)CC1)Nc1ccc(Oc2ccccc2)cc1` [compound 815159]: the Ki came to 85.4 nM.

Take `O=C(NCCCCN1CCN(c2c(Cl)sc3cc(F)ccc23)CC1)Nc1ccc(-c2ccccc2)cc1` [compound 815160]: the Ki came to 192 nM.

As for `O=C(NCCCCN1CCN(c2c(Cl)sc3cc(F)ccc23)CC1)Nc1ccc(OCc2ccccc2)cc1` [compound 815161], the Ki was 75.9 nM.

In the case of `O=C(NCCCCN1CCN(c2c(Cl)sc3cc(F)ccc23)CC1)Nc1ccc(C(F)(F)F)cc1` [compound 815162], the Ki came out at 38 nM.

Consider `O=C(NCCCCN1CCN(c2c(Cl)sc3cc(F)ccc23)CC1)Nc1cccc(F)c1` [compound 815163], for which the Ki is 25.2 nM.

Consider `O=C(NCCCCN1CCN(c2c(Cl)sc3cc(F)ccc23)CC1)Nc1ccc(F)cc1` [compound 815164], for which the Ki was 31.9 nM.

On to `COc1ccc(NC(=O)NCCCCN2CCN(c3c(Cl)sc4cc(F)ccc34)CC2)cc1` [compound 815165], for which the Ki was determined as 21.4 nM.

As to `CCCCOc1ccc(NC(=O)NCCCCN2CCN(c3c(Cl)sc4cc(F)ccc34)CC2)cc1` [compound 815166], the Ki is 37 nM.

For `CC(C)c1ccc(NC(=O)NCCCCN2CCN(c3c(Cl)sc4cc(F)ccc34)CC2)cc1` [compound 815167], the Ki came out at 48 nM.

For `O=C(NCCCCN1CCN(c2c(Cl)sc3cc(F)ccc23)CC1)Nc1ccc(I)cc1` [compound 815168], the Ki came to 33.4 nM.

As to `O=C(NCCCCN1CCN(c2c(Cl)sc3cc(F)ccc23)CC1)Nc1ccccc1Cl` [compound 815169], the Ki worked out at 11.2 nM.

For the molecule `CCCCc1ccc(NC(=O)NCCCCN2CCN(c3c(Cl)sc4cc(F)ccc34)CC2)cc1` [compound 815170], the Ki stood at 17.7 nM.

With `Cc1ccc(NC(=O)NCCCCN2CCN(c3c(Cl)sc4cc(F)ccc34)CC2)cc1` [compound 815171], the Ki was found to be 3.8 nM.

For the molecule `O=C(NCCCCN1CCN(c2c(Cl)sc3cc(F)ccc23)CC1)Nc1ccc(Cl)cc1` [compound 815172], the Ki was found to be 5.6 nM.

As for `O=C(NCCCCN1CCN(c2c(Cl)sc3cc(F)ccc23)CC1)Nc1ccccc1C(F)(F)F` [compound 815173], the Ki was 46.5 nM.

Turning to `O=C(NCCCCN1CCN(c2c(Cl)sc3cc(F)ccc23)CC1)Nc1ccc(Br)cc1` [compound 815174], the Ki came to 6 nM.

Regarding `O=C(NCCCCN1CCN(c2c(Cl)sc3cc(F)ccc23)CC1)Nc1cccc2ccccc12` [compound 815175], the Ki worked out at 11.8 nM.

On to `O=C(NCCCCN1CCN(c2c(Cl)sc3cc(F)ccc23)CC1)NCc1ccccc1` [compound 815177], for which the Ki was 18 nM.

As to `S=C(NCCCCN1CCC(c2noc3ccsc23)CC1)Nc1ccccc1` [compound 815383], the Ki was found to be 190 nM.

As to `O=C(NCCCCN1CCC(c2noc3ccsc23)CC1)Nc1ccc(Br)cc1` [compound 815386], the Ki was 18 nM.

As to `O=C(NCCCCN1CCC(c2noc3ccsc23)CC1)Nc1ccc(-c2ccccc2)cc1` [compound 815387], the Ki stood at 28 nM.

As to `O=C(NCCCCN1CCC(c2noc3ccsc23)CC1)NC1CCCCC1` [compound 815389], the Ki was found to be 30 nM.

In the case of `O=C(NCCCCN1CCC(c2noc3ccsc23)CC1)Nc1cccc2ccccc12` [compound 815390], the Ki was determined as 52 nM.

Take `O=C(NCCCCN1CCC(c2noc3ccsc23)CC1)Nc1ccc(Oc2ccccc2)cc1` [compound 815391]: the Ki was 16 nM.

For `O=C(NCCCCN1CCC(c2noc3ccsc23)CC1)NC12CC3CC(CC(C3)C1)C2` [compound 815392], the Ki was 24 nM.

As for `CCc1cccc(NC(=O)NCCCCN2CCC(c3noc4ccsc34)CC2)c1` [compound 815934], the Ki was 4.19 nM.

For `O=C(NCCCCN1CCC(c2noc3ccsc23)CC1)Nc1ccc(OC(F)(F)F)cc1` [compound 815935], the Ki was found to be 53.8 nM.

Turning to `O=C(NCCCCN1CCC(c2noc3ccsc23)CC1)Nc1cc(C(F)(F)F)ccc1Cl` [compound 815936], the Ki came to 3.91 nM.

`CC(NC(=O)NCCCCN1CCC(c2noc3ccsc23)CC1)c1ccc(Br)cc1` (stereo not shown) [compound 815937]: the Ki stood at 66.3 nM.

As to `CCO[Si](CCCNC(=O)NCCCCN1CCC(c2noc3ccsc23)CC1)(OCC)OCC` [compound 815938], the Ki worked out at 153 nM.

For the molecule `O=C(NCCCCN1CCC(c2noc3ccsc23)CC1)Nc1ccccc1Br` [compound 815939], the Ki came to 19.1 nM.

For the molecule `CCNC(=O)NCCCCN1CCC(c2noc3ccsc23)CC1` [compound 815940], the Ki turned out to be 140 nM.

As for `CCOC(=O)c1ccccc1NC(=O)NCCCCN1CCC(c2noc3ccsc23)CC1` [compound 815941], the Ki is 128 nM.

`CCOC(=O)C(CC(C)C)NC(=O)NCCCCN1CCC(c2noc3ccsc23)CC1` (stereo not shown) [compound 815942]: the Ki was found to be 41.7 nM.

Turning to `CCOC(=O)CCNC(=O)NCCCCN1CCC(c2noc3ccsc23)CC1` [compound 815943], the Ki amounted to 198 nM.

Turning to `COC(=O)C(Cc1ccccc1)NC(=O)NCCCCN1CCC(c2noc3ccsc23)CC1` (stereo not shown) [compound 815944], the Ki came out at 297 nM.

For `O=C(NCCCCN1CCC(c2noc3ccsc23)CC1)NCc1cc(=O)oc2cc3c(cc12)OCO3` [compound 815945], the Ki is 116 nM.

For `CCCCCCCCNC(=O)NCCCCN1CCC(c2noc3ccsc23)CC1` [compound 815946], the Ki came to 28.3 nM.

Regarding `COc1c(Cl)cccc1NC(=O)NCCCCN1CCC(c2noc3ccsc23)CC1` [compound 815947], the Ki came to 26 nM.

`O=C(NCCCCN1CCC(c2noc3ccsc23)CC1)Nc1ccccc1F` [compound 815948]: the Ki was 6.04 nM.

For `O=C(NCCCCN1CCC(c2noc3ccsc23)CC1)Nc1ccccc1Cl` [compound 815949], the Ki was 13.6 nM.

For `CC(C)c1ccccc1NC(=O)NCCCCN1CCC(c2noc3ccsc23)CC1` [compound 815952], the Ki amounted to 27 nM.

Turning to `C=C(C)c1cccc(C(C)(C)NC(=O)NCCCCN2CCC(c3noc4ccsc34)CC2)c1` [compound 815953], the Ki was found to be 67.9 nM.

Take `CCOC(=O)c1ccc(NC(=O)NCCCCN2CCC(c3noc4ccsc34)CC2)cc1` [compound 815954]: the Ki amounted to 14.9 nM.

On to `O=C(NCCCCN1CCN(c2csc3cc(C(F)(F)F)ccc23)CC1)Nc1cccc2ccccc12` [compound 815996], for which the Ki turned out to be 5.85 nM.
